Measured values: article PMC11020070, “Discovery of Protease-Activated Receptor 4 (PAR4)-Tethered Ligand Antagonists Using Ultralarge Virtual Screening” (ACS Pharmacology & Translational Science, 2024)
“Also recorded” adds a separate entry of the source.

Target: T1, PAR4 (Homo sapiens, UniProt Q96RI0)
T1 sequence (Q96RI0 18-385): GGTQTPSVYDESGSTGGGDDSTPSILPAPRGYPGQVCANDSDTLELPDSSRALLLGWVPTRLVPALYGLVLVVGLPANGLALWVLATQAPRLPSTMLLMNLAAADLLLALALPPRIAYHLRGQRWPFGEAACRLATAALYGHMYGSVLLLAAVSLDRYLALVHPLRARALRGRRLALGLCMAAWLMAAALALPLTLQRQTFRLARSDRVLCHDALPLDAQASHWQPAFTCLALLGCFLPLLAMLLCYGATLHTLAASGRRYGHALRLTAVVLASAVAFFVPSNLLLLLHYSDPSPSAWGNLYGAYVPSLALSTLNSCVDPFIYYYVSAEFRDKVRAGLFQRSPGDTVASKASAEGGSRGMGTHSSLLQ
Assay: Human platelet activation by PAR4 agonist peptide (PAR4-AP, AYPGKF)
Format: cell-based
Parameters: endogenous in cells; host or cells: platelets
Conditions: 10 μM compound, 200 μM AYPGKF
Experimental: To test the antagonistic effect of the compounds on PAR4, a flow cytometry assay of human platelets was employed. Each compound was screened at 10 μM in human platelets using flow cytometry for GPIIbIIIa activation (PAC1) and P-selectin (CD62p) expression as previously described.[4] Activation of GPIIbIIIa allows interaction with divalent fibrinogen or multivalent von Willebrand factor, leading to platelet aggregation.[41] PAR4 stimulation also triggers α-granule secretion containing P-selectin.[5] […] Platelets were treated with each test compound or vehicle control DMSO before activating with γ-thrombin (100 nM) or PAR4 agonist peptide mimetic (200 μM, “PAR4-AP” AYPGKF) for 30 min. γ-thrombin activates PAR4 but not PAR1.[42] […]
Activation of washed human platelets was monitored by flow cytometry for the detection of PAC1 (GPIIbIIIa activation) and CD62p (P-selectin expression) binding as previously described.[4] […] Platelets were collected, counted on a Z1 Coulter Particle Counter (Beckman Coulter, Brea, CA), and diluted in TBB to 1.5 × 10^7 platelets/mL. […] Data were collected on a three-laser BD LSRFortessa (Becton Dickinson) and analyzed with FlowJo software (FlowJo LLC, Ashland, OR). The mean fluorescence intensity (geometric) of PE and FITC was determined from 30,000 events after compensation correction. […]

Cc1nc(NC(=O)c2cc(-c3ccccc3)n(-c3ccccc3)n2)n[nH]1 [Compound 7]
inhibition of PAR4 agonist peptide activation: not inhibiting; also recorded: did not inhibit
